Like-named read-outs stand apart in the source and are kept apart here.
What was measured:
Format in all cases: biochemical
[1] = biological target: MMP-13CD (catalytic domain of collagenase-3) (Homo sapiens, UniProt P45452); assay: Thiopeptolide substrate hydrolysis inhibition assay, MMP-13CD
Source text: (§1) Thiopeptolide substrates show virtually no decomposition or hydrolysis at or below neutral pH in the absence of a matrix metalloproteinase enzyme.

MMP-12CD = biological target: T1, MMP-12CD (Homo sapiens, UniProt P39900); assay: Thiopeptolide substrate hydrolysis inhibition assay, MMP-12CD; details: Table II; micromolar concentration; HEPES pH 7.0
T1 construct: 12CD
Source text: as §1

[2] = biological target: MMP-9FL (full-length Gelatinase B) (Homo sapiens, UniProt P14780); assay: Thiopeptolide substrate hydrolysis inhibition assay, MMP-9FL; details: Table II; micromolar concentration; HEPES pH 7.0
Source text: as §1

[3] = biological target: T2, MMP-1FL (full-length interstitial collagenase) (Homo sapiens, UniProt P03956); assay: Thiopeptolide substrate hydrolysis inhibition assay, MMP-1FL; details: Table II; micromolar concentration; HEPES pH 7.0
T2 sequence (P03956 100-469): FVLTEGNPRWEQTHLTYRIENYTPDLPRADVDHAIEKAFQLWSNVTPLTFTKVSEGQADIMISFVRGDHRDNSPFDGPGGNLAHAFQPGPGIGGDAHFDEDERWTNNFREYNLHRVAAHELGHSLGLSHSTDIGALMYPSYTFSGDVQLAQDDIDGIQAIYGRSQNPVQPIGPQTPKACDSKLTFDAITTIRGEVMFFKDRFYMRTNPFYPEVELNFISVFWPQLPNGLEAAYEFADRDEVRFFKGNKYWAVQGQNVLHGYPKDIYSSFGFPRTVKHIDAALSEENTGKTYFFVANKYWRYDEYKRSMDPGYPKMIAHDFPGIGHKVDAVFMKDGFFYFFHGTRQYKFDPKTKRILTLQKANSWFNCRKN
Source text: as §1

[4] = biological target: MMP-14CD (catalytic domain of MMP-14) (Homo sapiens, UniProt P50281); assay: Thiopeptolide substrate hydrolysis inhibition assay, MMP-14CD; details: Table II; micromolar concentration; HEPES pH 7.0
Source text: as §1

[5] = biological target: T3, MMP-7FL (full-length matrilysin) (Homo sapiens, UniProt P09237); assay: Thiopeptolide substrate hydrolysis inhibition assay, MMP-7FL; details: Table II; micromolar concentration; HEPES pH 7.0
T3 sequence (P09237 95-267): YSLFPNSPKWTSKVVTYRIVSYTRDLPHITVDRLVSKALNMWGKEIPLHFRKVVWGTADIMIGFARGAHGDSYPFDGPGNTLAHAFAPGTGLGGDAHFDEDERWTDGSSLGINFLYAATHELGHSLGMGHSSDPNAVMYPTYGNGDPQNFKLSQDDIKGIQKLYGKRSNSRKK
Source text: as §1

[6] = biological target: T4, MMP-2FL (full length Gelatinase A) (Homo sapiens, UniProt P08253); assay: Thiopeptolide substrate hydrolysis inhibition assay, MMP-2FL; details: Table II; micromolar concentration; HEPES pH 7.0
T4 sequence (P08253 110-660): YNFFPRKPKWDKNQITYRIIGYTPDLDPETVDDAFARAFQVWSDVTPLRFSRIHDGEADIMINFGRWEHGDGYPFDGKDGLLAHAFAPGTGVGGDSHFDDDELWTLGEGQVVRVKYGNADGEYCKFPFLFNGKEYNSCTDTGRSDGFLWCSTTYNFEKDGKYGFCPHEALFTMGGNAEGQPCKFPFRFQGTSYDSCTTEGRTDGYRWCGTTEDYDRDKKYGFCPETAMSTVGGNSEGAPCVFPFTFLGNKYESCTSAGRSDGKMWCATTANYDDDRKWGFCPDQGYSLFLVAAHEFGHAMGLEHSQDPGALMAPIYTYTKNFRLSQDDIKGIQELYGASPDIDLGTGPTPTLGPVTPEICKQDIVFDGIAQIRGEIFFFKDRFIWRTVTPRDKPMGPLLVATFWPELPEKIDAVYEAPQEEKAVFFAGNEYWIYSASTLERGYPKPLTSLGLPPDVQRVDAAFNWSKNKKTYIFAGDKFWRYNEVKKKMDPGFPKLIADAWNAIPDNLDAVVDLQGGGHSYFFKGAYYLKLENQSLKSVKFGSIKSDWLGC
Source text: as §1

[7] = biological target: MMP-3CD (catalytic domain of stromelysin-1) (Homo sapiens, UniProt P08254); assay: Thiopeptolide substrate hydrolysis inhibition assay, MMP-3CD; details: Table II; micromolar concentration; MES buffer pH 6.0
Protocol: as §1
It should be appreciated that the assay buffer used with MMP-3CD is 50 mM N-morpholinoethanesulfonate (“MES”) at pH 6.0 rather than the HEPES buffer at pH 7.0 described above.

[8] = Table II, micromolar concentration, HEPES pH 7.0, read-out: IC50 MMP-13CD
[9] = Table I, thiopeptolide substrate, HEPES pH 7.0, 22° C., read-out: MMP-13CD IC50

T1 sequence (P39900 106-263 limits assumed): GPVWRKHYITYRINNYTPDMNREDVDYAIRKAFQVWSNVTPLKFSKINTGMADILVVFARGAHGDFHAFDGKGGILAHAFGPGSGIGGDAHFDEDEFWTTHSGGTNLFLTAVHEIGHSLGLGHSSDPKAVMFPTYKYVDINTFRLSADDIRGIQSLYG
Chain of MMP-9FL (full-length Gelatinase B) (P14780 94-707, species assumed): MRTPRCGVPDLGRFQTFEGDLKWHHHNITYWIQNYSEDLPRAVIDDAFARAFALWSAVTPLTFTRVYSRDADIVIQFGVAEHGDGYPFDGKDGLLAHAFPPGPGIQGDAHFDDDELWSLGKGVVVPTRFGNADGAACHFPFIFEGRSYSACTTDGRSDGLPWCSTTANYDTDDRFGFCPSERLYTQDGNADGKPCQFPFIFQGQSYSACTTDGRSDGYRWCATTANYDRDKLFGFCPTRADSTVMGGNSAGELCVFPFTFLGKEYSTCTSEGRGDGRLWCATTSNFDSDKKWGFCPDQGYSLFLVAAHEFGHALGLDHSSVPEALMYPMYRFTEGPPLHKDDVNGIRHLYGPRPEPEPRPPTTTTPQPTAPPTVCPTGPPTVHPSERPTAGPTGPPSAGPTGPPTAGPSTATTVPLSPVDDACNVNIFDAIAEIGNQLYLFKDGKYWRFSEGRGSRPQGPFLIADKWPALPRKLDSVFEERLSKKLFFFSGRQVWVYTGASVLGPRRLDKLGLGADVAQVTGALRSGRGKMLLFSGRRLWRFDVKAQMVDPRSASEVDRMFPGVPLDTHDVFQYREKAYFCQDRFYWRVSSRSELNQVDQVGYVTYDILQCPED
Chain of MMP-3CD (catalytic domain of stromelysin-1) (P08254 100-272 limits assumed): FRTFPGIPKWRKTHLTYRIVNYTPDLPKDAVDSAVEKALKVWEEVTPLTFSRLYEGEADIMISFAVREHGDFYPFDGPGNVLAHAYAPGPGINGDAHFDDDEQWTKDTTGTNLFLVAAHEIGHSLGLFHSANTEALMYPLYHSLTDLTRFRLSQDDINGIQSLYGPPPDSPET

Compound	IC50 [1, 8] [µM]	IC50 (MMP-12CD) [µM]	IC50 [2] [µM]	IC50 [3] [µM]	IC50 [4] [µM]	IC50 [5] [µM]	IC50 [6] [µM]	IC50 [7] [µM]	IC50 [1, 9] [µM]
COc1cccc(CNC(=O)c2cc3c(=O)n(Cc4ccc(S(=O)(=O)N5CCC(C)CC5)cc4)c(=O)n(C)c3s2)c1 [Example 47, 1-Methyl-3-[4-(4-methyl-piperidine-1-sulfonyl)-benzyl]-2,4-dioxo-1,2,3,4-tetrahydro-thieno[2,3-d]pyrimidine-6-carboxylic acid 3-methoxy-benzylamide]	0.038	30	30	30	10	14	30	30	–
COc1ccc(CNC(=O)c2cc3c(=O)n(Cc4cccc(OC)c4)c(=O)n(C)c3s2)cc1 [Example 63, 3-(3-Methoxy-benzyl)-1-methyl-2,4-dioxo-1,2,3,4-tetrahydro-thieno[2,3-d]pyrimidine-6-carboxylic acid 4-methoxy-benzylamide]	0.11	30	30	30	30	30	30	18	0.11
COC(=O)c1ccc(Cn2c(=O)c3cc(C(=O)NCc4ccc(OC)cc4)sc3n(C)c2=O)cc1OC [Example 228, 2-Methoxy-4-[6-(4-methoxy-benzylcarbamoyl)-1-methyl-2,4-dioxo-1,4-dihydro-2H-thieno[2,3-d]pyrimidin-3-ylmethyl]-benzoic acid methyl ester]	0.435	30	30	30	30	10	30	15	0.435
CCCCNC(=O)NS(=O)(=O)c1ccc(Cn2c(=O)c3cc(C(=O)NCc4cccc(OC)c4)sc3n(C)c2=O)cc1 [Example 231a]	0.009	30	91	–	30	46	50	13	0.00895
COc1ccc(CNC(=O)c2cc3c(=O)n(CCOc4ccc(Br)cc4)c(=O)n(C)c3s2)cc1 [Example 232, 3-[2-(4-Bromo-phenoxy)-ethyl]-1-methyl-2,4-dioxo-1,2,3,4-tetrahydro-thieno[2,3-d]pyrimidine-6-carboxylic acid 4-methoxy-benzylamide]	0.18	30	30	30	30	30	30	17	0.175
COc1cccc(CNC(=O)c2cc3c(=O)n(CCS(=O)(=O)c4ccc(Cl)cc4)c(=O)n(C)c3s2)c1 [Example 246, 3-[2-(4-Chloro-benzenesulfonyl)-ethyl]-1-methyl-2,4-dioxo-1,2,3,4-tetrahydro-thieno[2,3-d]pyrimidine-6-carboxylic acid 3-methoxy-benzylamide]	5.65	30	30	–	36	48	30	23	5.65
COC(=O)c1ccc(Cn2c(=O)c3cc(C(N)=O)sc3n(C)c2=O)cc1C [Example 249a]	0.64	–	30	–	30	30	30	–	0.64
Cn1c(=O)n(Cc2ccccc2)c(=O)c2cc(C(=O)OCc3ccncc3)sc21 [Example 303, 3-Benzyl-1-methyl-2,4-dioxo-1,2,3,4-tetrahydro-thieno[2,3-d]pyrimidine-6-carboxylic acid pyridin-4-ylmethyl ester]	0.0036	–	30	–	–	32	–	6	0.0036
COc1ccc(CNC(=O)c2cc3c(=O)n(Cc4ccc([N+](=O)[O-])nc4)c(=O)n(C)c3s2)cc1 [Example 369, 1-Methyl-3-(6-nitro-pyridin-3-ylmethyl)-2,4-dioxo-1,2,3,4-tetrahydro-thieno[2,3-d]pyrimidine-6-carboxylic acid 4-methoxy-benzylamide]	1.04	30	30	10	30	30	30	10	1.04

— patent publication US20030004172A1, “Fused pyrimidinone matrix metalloproteinase inhibitors” (priority 2001, published 2003)
